Seven molecules from patent US9783552B2, “Soluble guanylate cyclase activators” (MERCK SHARP & DOHME CORP., priority 2013, dated 2017) can be followed below.

The subject of experiment [1] is Spontaneously hypertensive rats (SHR). Nature of the experiment: Acute Efficacy in Spontaneously Hypertensive Rats (SHR). Conditions: single oral gavage. The class given is in vivo, rat. The source says: Acute Efficacy in Spontaneously Hypertensive Rats (SHR)
Spontaneously hypertensive rats (SHR, male, Charles River) were implanted with DSI TA 11PA-C40 telemetry device (Data Sciences, Inc., St. Paul, Minn.) under isoflurane or ketamine/metomidine anesthesia. The telemetry unit catheter was inserted into the descending aorta via the femoral artery and the telemetry device was implanted subcutaneously in the left flank area. Animals were allowed to recover from surgery for 14 days before the start of any studies. Blood pressure, heart rate, and activity signals from conscious, freely moving rats were recorded continuously for 30 seconds every 10 min. On the day prior to administration of compound, a single oral dose of vehicle (10% transcutol/20% Cremophor/70% water) was administered to all animals to establish baseline control data. The blood pressure lowering efficacy of compound (PO) or vehicle was evaluated following a single oral gavage. Data were collected as hourly averages, and changes in blood pressure were calculated by subtracting control baseline data on an hourly basis. Animals were maintained on normal diet with a 12 h light-dark cycle.
Maximum peak decreases of systolic blood pressure (SBP) in SHR at a particular P.O. dose (mpk milligrams per kilogram) for the following Example compounds are provided. Category A=SBP in SHRs<25 mmHg; Category B=SBP in SHRs 25-40 mmHg; Category C=SBP in SHRs>40 mmHg.

The next experiment deals with T1, sGC α1/β1 heterodimer (Homo sapiens, UniProt Q02108+Q02153).
T1 construct: expressed in transfected cells
T1 sequence (Q02108 1-690): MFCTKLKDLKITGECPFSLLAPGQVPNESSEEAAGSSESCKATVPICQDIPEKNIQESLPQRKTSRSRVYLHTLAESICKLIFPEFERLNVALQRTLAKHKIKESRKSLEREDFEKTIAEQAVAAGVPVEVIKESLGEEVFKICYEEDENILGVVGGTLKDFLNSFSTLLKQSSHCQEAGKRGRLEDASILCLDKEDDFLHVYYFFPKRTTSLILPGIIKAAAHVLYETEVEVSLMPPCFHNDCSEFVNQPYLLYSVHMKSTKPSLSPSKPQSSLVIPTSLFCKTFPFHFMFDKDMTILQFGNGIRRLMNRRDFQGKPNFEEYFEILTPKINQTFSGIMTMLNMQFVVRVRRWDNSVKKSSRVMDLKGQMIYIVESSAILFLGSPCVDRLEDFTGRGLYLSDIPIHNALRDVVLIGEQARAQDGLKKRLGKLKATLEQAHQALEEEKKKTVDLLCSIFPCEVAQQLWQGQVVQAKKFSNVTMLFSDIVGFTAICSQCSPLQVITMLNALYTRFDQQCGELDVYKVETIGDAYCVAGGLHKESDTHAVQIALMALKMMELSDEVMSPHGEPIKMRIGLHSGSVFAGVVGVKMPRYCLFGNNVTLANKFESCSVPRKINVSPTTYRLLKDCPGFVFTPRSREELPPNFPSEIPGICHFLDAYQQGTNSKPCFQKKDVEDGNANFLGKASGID
T1 sequence (Q02153 1-619): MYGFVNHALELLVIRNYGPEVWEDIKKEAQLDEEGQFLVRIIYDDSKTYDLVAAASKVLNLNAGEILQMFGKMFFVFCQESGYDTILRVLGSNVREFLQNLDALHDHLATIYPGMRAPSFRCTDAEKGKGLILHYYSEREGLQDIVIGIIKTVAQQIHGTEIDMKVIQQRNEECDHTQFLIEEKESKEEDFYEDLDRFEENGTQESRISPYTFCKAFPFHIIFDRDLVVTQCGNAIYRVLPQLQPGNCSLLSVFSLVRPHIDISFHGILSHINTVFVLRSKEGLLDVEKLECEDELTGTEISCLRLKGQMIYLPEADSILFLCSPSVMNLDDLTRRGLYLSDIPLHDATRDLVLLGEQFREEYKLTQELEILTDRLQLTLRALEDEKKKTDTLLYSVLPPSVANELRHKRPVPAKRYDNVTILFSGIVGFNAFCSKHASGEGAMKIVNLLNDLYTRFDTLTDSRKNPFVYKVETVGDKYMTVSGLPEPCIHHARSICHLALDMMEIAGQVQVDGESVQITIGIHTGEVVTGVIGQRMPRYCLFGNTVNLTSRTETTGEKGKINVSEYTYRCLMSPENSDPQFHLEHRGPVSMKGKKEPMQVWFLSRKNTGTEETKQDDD
Description: Cell-Based sGC Functional Assay (CASA Assay). Conditions: CHO-K1/sGC cells; for EC50: intracellular cGMP by HTRF, 1 hr at 37° C., IP from 4P fit, presence or absence of 1 μM DETA-NO not given; for Emax: cGMP as percentage of maximum cGMP production of Compound A (=100% activation), read-out: % ACT (percent activation). In a few lines:
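cGMP accumulation was quantified by HTRF in stable human sGC α1/β1 CHO-K1 cells after 1 hr at 37 °C with compound, 0.5 mM IBMX and 2.5% DMSO. Runs were done in the presence and absence of 1 μM of the NO donor DETA-NO. Activation was normalised to the reference heme-dependent activator maximum (100%), and a 4P fit gave IP and maximum fold induction.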
(In TR-FRET formats the signal depends on donor and acceptor labels being close together.)

Regarding `[2H]C([2H])([2H])n1ncc2c(-c3nc(N)c4c(n3)NC(=O)C4(C)c3ccc(F)cc3)nc(CCC(F)(F)C(F)(F)F)nc21` (single isomer, unassigned) [Example 2, 4-Amino-5-(4-fluorophenyl)-5-methyl-2-(6-(3,3,4,4,4-pentafluorobutyl)-1-trideuteriomethyl-1H-pyrazolo[3,4-d]pyrimidin-4-yl)-5H-pyrrolo[2,3-d]pyrimidin-6(7H)-one], in experiment [1] (Dose 1 mpk P.O.), the “Maximum peak decrease of systolic blood pressure (SBP) in SHR, Category” value (shortened to “Maximum peak decrease”) is recorded as “C (Category C=SBP in SHRs>40 mmHg)”. In addition, on sGC α1/β1 heterodimer, the response was half-maximal at 32 nM (EC50) and the Emax was found to be 97%.
Regarding `[2H]C([2H])([2H])n1nnc2c(-c3nc(N)c4c(n3)NC(=O)C4(C)c3ccc(F)cc3)nc(CCC(F)(F)C(F)(F)F)nc21` (single isomer, unassigned) [Example 67, 4-Amino-5-(4-fluorophenyl)-5-methyl-2-(5-(3,3,4,4,4-pentafluorobutyl-3-trideuteriomethyl)-3H-[1,2,3]triazolo[4,5-d]pyrimidin-7-yl)-5H-pyrrolo[2,3-d]pyrimidin-6(7H)-one], the “Maximum peak decrease” value in experiment [1] (Dose 1 mpk P.O.) is recorded as “A (Category A=SBP in SHRs<25 mmHg)”. At sGC α1/β1 heterodimer, a half-maximal effect (EC50) was put at 1070 nM and the Emax came to 114%.
As to `Cn1ncc2c(-c3nc(N)c4c(n3)NC(=O)C4(C)c3ccc(F)cc3)nc(CCC(F)(F)C(F)(F)F)nc21` (single isomer, unassigned) [Example 9, 4-Amino-5-(4-fluorophenyl)-5-methyl-2-(1-methyl-6-(3,3,4,4,4-pentafluorobutyl)-1H-pyrazolo[3,4-d]pyrimidin-4-yl)-5H-pyrrolo[2,3-d]pyrimidin-6(7H)-one], in experiment [1] (Dose 1 mpk P.O.), the “Maximum peak decrease” value is listed as “C (Category C=SBP in SHRs>40 mmHg)”. Also, at sGC α1/β1 heterodimer, the response was half-maximal at 46 nM (EC50) and the Emax was found to be 110%.
Consider `[2H]C([2H])([2H])n1ncc2c(-c3nc(N)c4c(n3)NC(=O)C4(C(=O)NC3CC3)C3CC3)nc(CCC(F)(F)C(F)(F)F)nc21` (single isomer, unassigned) [Example 28, 4-Amino-N,5-dicyclopropyl-2-(6-(3,3,4,4,4-pentafluorobutyl)-1-trideuteriomethyl-1H-pyrazolo[3,4-d]pyrimidin-4-yl)-6-oxo-6,7-dihydro-5H-pyrrolo[2,3-d]pyrimidine-5-carboxamide], for which the “Maximum peak decrease” value in experiment [1] (Dose 1 mpk P.O.) was “C (Category C=SBP in SHRs>40 mmHg)”. On sGC α1/β1 heterodimer, it took 53 nM to reach a half-maximal effect (EC50) and the Emax worked out at 112%.
Take `[2H]C([2H])([2H])n1nnc2c(-c3nc(N)c4c(n3)NC(=O)C4(C)c3ccc(Cl)cc3F)nc(CCC(F)(F)C(F)(F)F)nc21` (single isomer, unassigned) [Example 73, 4-Amino-5-(4-chloro-2-fluorophenyl)-5-methyl-2-(5-(3,3,4,4,4-pentafluorobutyl-3-trideuteriomethyl)-3H-[1,2,3]triazolo[4,5-d]pyrimidin-7-yl)-5H-pyrrolo[2,3-d]pyrimidin-6(7H)-one]: the “Maximum peak decrease” value in experiment [1] (Dose 3 mpk P.O.) was “A (Category A=SBP in SHRs<25 mmHg)”. Also, at sGC α1/β1 heterodimer, the EC50 was found to be 429 nM and the Emax came out at 97%.
Consider `[2H]C([2H])([2H])n1nnc2c(-c3nc(N)c4c(n3)NC(=O)C4(C)c3ccc(OC)cc3)nc(CCC(F)(F)C(F)(F)F)nc21` (single isomer, unassigned) [Example 71, 4-Amino-5-(4-methoxyphenyl)-5-methyl-2-(5-(3,3,4,4,4-pentafluorobutyl-3-trideuteriomethyl)-3H-[1,2,3]triazolo[4,5-d]pyrimidin-7-yl)-5H-pyrrolo[2,3-d]pyrimidin-6(7H)-one], for which the “Maximum peak decrease” value in experiment [1] (Dose 1 mpk P.O.) is recorded as “A (Category A=SBP in SHRs<25 mmHg)”. At sGC α1/β1 heterodimer, the EC50 worked out at 594 nM and the Emax is 67%.
Taken in the same sequence, the figures for `Cn1ccc2c(-c3nc(N)c4c(n3)NC(=O)C4(C)c3ccccc3)nc(CCC(F)(F)C(F)(F)F)nc21` (single isomer, unassigned) [Example 62, 4-Amino-5,7′-dimethyl-2′-(3,3,4,4,4-pentafluorobutyl)-5-phenyl-5H,7′H-[2,4′-bipyrrolo[2,3-d]pyrimidin]-6(7H)-one] were “A (Category A=SBP in SHRs<25 mmHg)”, 19 nM and 92%.

One may read the EC50 as the midpoint of the concentration-response curve. A low value points to greater potency.
